Values of other authors as cited in US12673067B2, “Methods, agents, and devices for local neuromodulation of autonomic nerves” (Tulavi Therapeutics, Inc., priority 2016, dated 2026).

Legend:
[1] = molecular target: GPR40 (Homo sapiens, UniProt O14842); details: at 100 μM
[2] = molecular target: T1, GPR120 (Homo sapiens, UniProt Q5NUL3)
T1 sequence (Q5NUL3 1-361): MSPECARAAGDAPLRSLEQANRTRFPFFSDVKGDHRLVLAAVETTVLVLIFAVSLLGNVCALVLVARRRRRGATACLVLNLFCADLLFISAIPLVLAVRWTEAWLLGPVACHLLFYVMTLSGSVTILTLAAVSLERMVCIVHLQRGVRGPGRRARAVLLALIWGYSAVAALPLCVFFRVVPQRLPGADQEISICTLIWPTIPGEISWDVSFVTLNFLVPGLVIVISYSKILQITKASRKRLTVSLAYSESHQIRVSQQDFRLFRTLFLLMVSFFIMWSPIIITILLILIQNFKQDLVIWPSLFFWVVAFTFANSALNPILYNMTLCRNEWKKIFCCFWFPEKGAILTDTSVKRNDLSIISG

[3] = molecular target: T2, FFA2 (Homo sapiens, UniProt O15552)
T2 sequence (O15552 1-330): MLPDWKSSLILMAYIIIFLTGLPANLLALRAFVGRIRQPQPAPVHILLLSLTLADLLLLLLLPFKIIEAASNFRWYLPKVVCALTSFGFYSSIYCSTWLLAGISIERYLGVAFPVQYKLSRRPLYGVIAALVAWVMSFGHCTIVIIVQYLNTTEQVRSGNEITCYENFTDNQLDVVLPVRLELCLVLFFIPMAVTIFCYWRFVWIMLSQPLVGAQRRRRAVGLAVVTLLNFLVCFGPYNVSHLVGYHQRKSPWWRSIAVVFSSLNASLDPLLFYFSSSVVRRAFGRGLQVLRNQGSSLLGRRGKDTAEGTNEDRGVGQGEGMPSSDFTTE

[4] = molecular target: FFA1 (Homo sapiens, UniProt O14842); details: footnote b: insulin secretion/DMR assay
Chain of FFA1 (O14842 whole entry): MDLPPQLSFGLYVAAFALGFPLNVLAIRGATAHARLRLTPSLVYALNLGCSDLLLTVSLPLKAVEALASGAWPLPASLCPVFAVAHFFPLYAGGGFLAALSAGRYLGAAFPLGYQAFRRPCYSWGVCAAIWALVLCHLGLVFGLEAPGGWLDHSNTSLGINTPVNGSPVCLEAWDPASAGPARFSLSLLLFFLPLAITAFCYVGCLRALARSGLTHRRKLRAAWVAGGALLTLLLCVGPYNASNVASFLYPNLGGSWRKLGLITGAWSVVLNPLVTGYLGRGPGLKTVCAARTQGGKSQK

[5] = molecular target: T3, FFA3 (Homo sapiens, UniProt O14843)
T3 sequence (O14843 1-346): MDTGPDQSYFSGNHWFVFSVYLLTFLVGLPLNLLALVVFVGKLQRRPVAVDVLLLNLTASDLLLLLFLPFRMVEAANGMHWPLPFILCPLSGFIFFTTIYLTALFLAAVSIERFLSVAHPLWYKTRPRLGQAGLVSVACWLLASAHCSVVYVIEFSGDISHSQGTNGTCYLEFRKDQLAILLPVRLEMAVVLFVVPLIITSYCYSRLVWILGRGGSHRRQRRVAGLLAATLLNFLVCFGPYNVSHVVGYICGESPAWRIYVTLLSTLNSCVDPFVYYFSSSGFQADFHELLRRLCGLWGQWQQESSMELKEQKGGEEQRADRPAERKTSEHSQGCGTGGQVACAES

Chain of GPR40 (O14842 whole entry): as the sequence (O14842 whole entry) above

CC(C)=CCC/C(C)=C/CC/C(C)=C/Cc1c(O)cc(C)c(C(=O)O)c1O [Grifolic acid]
GPR40 activity [1]: without GPR40 activity | GPR120 agonism [2]: Weak GPR120 partial agonist

Cc1ccccc1C#Cc1ccc(CCC(=O)O)cc1 [TUG424]
activity at FFA2 [3]: No activity at FFA2 and FFA3 reported (TUG424). | FFA1 pEC50 [4]: 7.5^b | activity at FFA3 [5]: No activity at FFA2 and FFA3 reported (TUG424).
